This test has as its target Granzyme B (human lymphocytes) (Homo sapiens (Human), UniProt P10144). Put plainly: human Granzyme B biochemical assay. As to conditions: Granzyme B (human lymphocytes) 5 nM, substrate Ac-IETD-AFC 200 μM, Cpd incubation with enzyme 30 mins, 22° C., read time 60 mins; read-out: IC50. In outline: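 Fluorogenic Ac-IETD-AFC cleavage (Ex 400/Em 505 nm) read after 60 min at 22 °C, following 30 min, 22 °C enzyme–compound pre-incubation. Working stocks: enzyme 10 nM in 0.1% BSA buffer, substrate 800 µM, compound 8 points, 3.16-fold from 40 µM. Controls set 0% (DMSO) and 100% (standard inhibitor) inhibition; IC50 fitted.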
Granzyme B (human lymphocytes), sequence (P10144 21-247): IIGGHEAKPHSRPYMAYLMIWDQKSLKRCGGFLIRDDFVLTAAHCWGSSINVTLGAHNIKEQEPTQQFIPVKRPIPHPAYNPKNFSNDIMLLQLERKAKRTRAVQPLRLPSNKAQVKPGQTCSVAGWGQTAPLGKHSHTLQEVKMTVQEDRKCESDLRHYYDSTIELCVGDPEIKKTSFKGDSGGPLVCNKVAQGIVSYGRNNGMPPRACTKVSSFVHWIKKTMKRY
For the molecule `COc1ccc(C(=O)N[C@H](C(=O)N[C@H]2CCc3cccc4c3N(C2=O)[C@H](C(=O)NCc2c[nH]nn2)C4)C(C)C)cc1` [Compound C065, (2S,5S)-5-[(S)-2-(4-Methoxy-benzoylamino)-3-methyl-butyrylamino]-4-oxo-1,2,4,5,6,7-hexahydro-azepino[3,2,1-hi]indole-2-carboxylic acid (1H-[1,2,3]triazol-4-ylmethyl)-amide], the IC50 lay within 1 to 300 nM.

Consider `O=C(Cc1ccccc1)N[C@@H](Cc1ccccc1)C(=O)N[C@H]1CCc2cccc3c2N(C1=O)[C@H](C(=O)NCc1c[nH]nn1)C3` [Compound C015, (2S,5S)-4-Oxo-5-((S)-3-phenyl-2-phenylacetylamino-propionylamino)-1,2,4,5,6,7-hexahydro-azepino[3,2,1-hi]indole-2-carboxylic acid (1H-[1,2,3]triazol-4-ylmethyl)-amide], for which the IC50 lay in the range of 1000 to 5000 nM.

`CC(=O)N[C@@H](CO)C(=O)N[C@H]1CCc2cccc3c2N(C1=O)[C@H](C(=O)NCc1c[nH]nn1)C3` [Compound C029, (2S,5S)-5-((S)-2-Acetylamino-3-hydroxy-propionylamino)-4-oxo-1,2,4,5,6,7-hexahydro-azepino[3,2,1-hi]indole-2-carboxylic acid (1H-[1,2,3]triazol-4-ylmethyl)-amide]: the IC50 is greater than 5000 nM.

As for `CC[C@H](C)[C@H](NC(=O)COCCF)C(=O)N[C@H]1CCc2cccc3c2N(C1=O)[C@H](C(=O)NCc1cccs1)C3` [Compound C106, (2S,5S)-5-{(2S,3S)-2-[2-(2-Fluoro-ethoxy)-acetylamino]-3-methyl-pentanoylamino}-4-oxo-1,2,4,5,6,7-hexahydro-azepino[3,2,1-hi]indole-2-carboxylic acid (thiophen-2-ylmethyl)-amide], the half-maximal inhibitory concentration (IC50) was greater than 5000 nM.

On to `CC[C@H](C)[C@H](NC(=O)COCCF)C(=O)N[C@H]1CCc2cccc3c2N(C1=O)[C@H](C(=O)NCc1ccccc1Cl)C3` [Compound C130, (2S,5S)-5-{(2S,3S)-2-[2-(2-Fluoro-ethoxy)-acetylamino]-3-methyl-pentanoylamino}-4-oxo-1,2,4,5,6,7-hexahydro-azepino[3,2,1-hi]indole-2-carboxylic acid 2-chloro-benzylamide], for which the 50% inhibitory concentration (IC50) was greater than 5000 nM.

`COc1cccc(C(=O)N[C@H](C(=O)N[C@H]2CCc3cccc4c3N(C2=O)[C@H](C(=O)NCc2c[nH]nn2)C4)C(C)C)c1` [Compound C064, (2S,SS)-5-[(S)-2-(3-Methoxy-benzoylamino)-3-methyl-butyrylamino]-4-oxo-1,2,4,5,6,7-hexahydro-azepino[3,2,1-hi]indole-2-carboxylic acid (1H-[1,2,3]triazol-4-ylmethyl)-amide]: the IC50 fell in the range of 1 to 300 nM.

For the molecule `CC[C@H](C)[C@H](NC(=O)Cc1cc2ccccc2o1)C(=O)N[C@H]1CCc2cccc3c2N(C1=O)[C@H](C(=O)NCc1c[nH]nn1)C3` [Compound C159, (2S,5S)-5-[(2S,3S)-2-(2-Benzofuran-2-yl-acetylamino)-3-methyl-pentanoylamino]-4-oxo-1,2,4,5,6,7-hexahydro-azepino[3,2,1-hi]indole-2-carboxylic acid (1H-[1,2,3]triazol-4-ylmethyl)-amide], the IC50 lay in the range of 1 to 300 nM.

Consider `O=C(Cc1csc2ccccc12)N[C@H](C(=O)N[C@H]1CCc2cccc3c2N(C1=O)[C@H](C(=O)NCc1c[nH]nn1)C3)C1CCCCC1` [Compound C078, (2S,5S)-5-[(S)-2-(2-Benzo[b]thiophen-3-yl-acetylamino)-2-cyclohexyl-acetylamino]-4-oxo-1,2,4,5,6,7-hexahydro-azepino[3,2,1-hi]indole-2-carboxylic acid (1H-[1,2,3]triazol-4-ylmethyl)-amide], for which the IC50 fell in the range of 301 to 1000 nM.

For the molecule `N[C@H]1CCc2cccc3c2N(C1=O)[C@H](C(=O)NCc1c[nH]nn1)C3` [Compound C147, (2S,5S)-5-Amino-4-oxo-1,2,4,5,6,7-hexahydro-azepino[3,2,1-hi]indole-2-carboxylic acid (1H-[1,2,3]triazol-4-ylmethyl)-amide], the IC50 is greater than 5000 nM.

`C[C@H](NC(=O)c1ccccc1)C(=O)N[C@H]1CCc2cccc3c2N(C1=O)[C@H](C(=O)NCc1c[nH]nn1)C3` [Compound C035, (2S,5S)-5-((S)-2-Benzoylamino-propionylamino)-4-oxo-1,2,4,5,6,7-hexahydro-azepino[3,2,1-hi]indole-2-carboxylic acid (1H-[1,2,3]triazol-4-ylmethyl)-amide]: the IC50 was greater than 5000 nM.

Turning to `COC(=O)CNC(=O)[C@@H]1Cc2cccc3c2N1C(=O)[C@@H](NC(=O)[C@@H](NC(C)=O)C(C)C)CC3` [Compound C086, {[(2S,5S)-5-((S)-2-Acetylamino-3-methyl-butyrylamino)-4-oxo-1,2,4,5,6,7-hexahydro-azepino[3,2,1-hi]indole-2-carbonyl]-amino}-acetic acid methyl ester], the IC50 was greater than 5000 nM.

For the molecule `Cc1cccc(C(=O)N[C@H](C(=O)N[C@H]2CCc3cccc4c3N(C2=O)[C@H](C(=O)NCc2c[nH]nn2)C4)C(C)C)c1` [Compound C051, (2S,5S)-5-[(S)-3-Methyl-2-(3-methyl-benzoylamino)-butyrylamino]-4-oxo-1,2,4,5,6,7-hexahydro-azepino[3,2,1-hi]indole-2-carboxylic acid (1H-[1,2,3]triazol-4-ylmethyl)-amide], the IC50 was 1 to 300 nM.

For the molecule `CC(=O)N[C@H](C(=O)N[C@H]1CCc2cccc3c2N(C1=O)[C@H](C(=O)NCc1c[nH]nn1)C3)C1CCCCC1` [Compound C080, (2S,5S)-5-((S)-2-Acetylamino-2-cyclohexyl-acetylamino)-4-oxo-1,2,4,5,6,7-hexahydro-azepino[3,2,1-hi]indole-2-carboxylic acid (1H-[1,2,3]triazol-4-ylmethyl)-amide], the half-inhibitory concentration (IC50) was in the range of 301 to 1000 nM.

Turning to `COC(=O)[C@@H](C)NC(=O)[C@@H]1Cc2cccc3c2N1C(=O)[C@@H](NC(=O)[C@@H](NC(C)=O)C(C)C)CC3` [Compound C088, (R)-2-{[(2S,5S)-5-((S)-2-Acetylamino-3-methyl-butyrylamino)-4-oxo-1,2,4,5,6,7-hexahydro-azepino[3,2,1-hi]indole-2-carbonyl]-amino}-propionicacid methyl ester], the IC50 is greater than 5000 nM.

Consider `CC[C@H](C)[C@H](NC(=O)COCCF)C(=O)N[C@H]1CCc2cccc3c2N(C1=O)[C@H](C(=O)NCc1cc(Cl)cc(Cl)c1)C3` [Compound C133, (2S,5S)-5-{(2S,3S)-2-[2-(2-Fluoro-ethoxy)-acetylamino]-3-methyl-pentanoylamino}-4-oxo-1,2,4,5,6,7-hexahydro-azepino[3,2,1-hi]indole-2-carboxylic acid 3,5-dichloro-benzylamide], for which the concentration for half-maximal inhibition (IC50) is greater than 5000 nM.

`CC(C)[C@H](NC(=O)c1ccc(F)cc1)C(=O)N[C@H]1CCc2cccc3c2N(C1=O)[C@H](C(=O)NCc1c[nH]nn1)C3` [Compound C047, (2S,5S)-5-[(S)-2-(4-Fluoro-benzoylamino)-3-methyl-butyrylamino]-4-oxo-1,2,4,5,6,7-hexahydro-azepino[3,2,1-hi]indole-2-carboxylic acid (1H-[1,2,3]triazol-4-ylmethyl)-amide]: the IC50 is 301 to 1000 nM.

Consider `CC(C)[C@H](NC(=O)c1ccccc1F)C(=O)N[C@H]1CCc2cccc3c2N(C1=O)[C@H](C(=O)NCc1c[nH]nn1)C3` [Compound C049, (2S,5S)-5-[(S)-2-(2-Fluoro-benzoylamino)-3-methyl-butyrylamino]-4-oxo-1,2,4,5,6,7-hexahydro-azepino[3,2,1-hi]indole-2-carboxylic acid (1H-[1,2,3]triazol-4-ylmethyl)-amide], for which the IC50 lay in the range of 301 to 1000 nM.

Consider `CC[C@H](C)[C@H](NC(=O)Cc1cc2ccccc2[nH]1)C(=O)N[C@H]1CCc2cccc3c2N(C1=O)[C@H](C(=O)NCc1c[nH]nn1)C3` [Compound C161, (2S,5S)-5-[(2S,3S)-2-(2-1H-Indol-2-yl-acetylamino)-3-methyl-pentanoylamino]-4-oxo-1,2,4,5,6,7-hexahydro-azepino[3,2,1-hi]indole-2-carboxylicacid (1H-[1,2,3]triazol-4-ylmethyl)-amide], for which the IC50 is 1 to 300 nM.

In the case of `O=C(N[C@H](C(=O)N[C@H]1CCc2cccc3c2N(C1=O)[C@H](C(=O)NCc1c[nH]nn1)C3)C1CCC1)c1ccccc1` [Compound C084, (2S,5S)-5-((S)-2-Benzoylamino-2-cyclobutyl-acetylamino)-4-oxo-1,2,4,5,6,7-hexahydro-azepino[3,2,1-hi]indole-2-carboxylic acid (1H-[1,2,3]triazol-4-ylmethyl)-amide], the IC50 fell in the range of 1 to 300 nM.

On to `CC(C)[C@H](NC(=O)c1ccccc1)C(=O)N[C@H]1COc2cccc3c2N(C1=O)[C@H](C(=O)NCc1c[nH]nn1)C3` [Compound C100, (1S,8S)-8-((S)-2-Benzoylamino-3-methyl-butyrylamino)-9-oxo-1,2,8,9-tetrahydro-7H-6-oxa-9a-aza-benzo[cd]azulene-1-carboxylic acid (1H-[1,2,3,]triazol-4-ylmethyl)-amide], for which the IC50 fell in the range of 1 to 300 nM.

With `CC[C@H](C)[C@H](NC(=O)Cc1nc2ccccc2o1)C(=O)N[C@H]1CCc2cccc3c2N(C1=O)[C@H](C(=O)NCc1c[nH]nn1)C3` [Compound C160, (2S,5S)-5-[(2S,3S)-2-(2-Benzooxazol-2-yl-acetylamino)-3-methyl-pentanoylamino]-4-oxo-1,2,4,5,6,7-hexahydro-azepino[3,2,1-hi]indole-2-carboxylic acid (1H-[1,2,3]triazol-4-ylmethyl)-amide], the IC50 fell in the range of 1 to 300 nM.

Regarding `COC(=O)CC[C@H](NC(=O)[C@@H]1Cc2cccc3c2N1C(=O)[C@@H](NC(=O)[C@@H](NC(C)=O)C(C)C)CC3)C(=O)OC` [Compound C095, (S)-2-{[(2S,5S)-5-((S)-2-Acetylamino-3-methyl-butyrylamino)-4-oxo-1,2,4,5,6,7-hexahydro-azepino[3,2,1-hi]indole-2-carbonyl]-amino}-pentanedioic acid dimethyl ester], the 50% inhibitory concentration (IC50) is greater than 5000 nM.
